Laboratory results as given in ChEMBL document CHEMBL6092154, “Design, synthesis, and evaluation of a novel TRAIL-activated HDAC6 inhibitor for the treatment of pulmonary fibrosis” (Bioorg Med Chem, 2024).
pIC50: −log10 of the molar value. Activity calls are given as the source filed them. The calls are words filed in the database; no cut-off is given here.

Assays:
[1] = test system: Mus musculus; experiment: Anti-pulmonary fibrosis activity in bleomycin-induced idiopathic pulmonary fibrosis C57BL/6J mouse model assessed as decrease in collagen I protein expression in lung at 25 mg/kg, ig administered daily via gavage measured after 14 days by western blot analysis; type: functional, organism-based; conditions: time 14.0 day
[2] = target: Histone deacetylase 1 (Homo sapiens) (UniProt Q13547); experiment: Inhibition of HDAC1 (unknown origin) at 1 uM incubated for 30 mins by fluorometric analysis
[3] = target: Histone deacetylase 2 (Homo sapiens, UniProt Q92769); experiment: Inhibition of HDAC2 (unknown origin) incubated for 30 mins by fluorometric analysis
[4] = test system: Fibroblast; experiment: Antiproliferative activity against human primary fibroblasts assessed as inhibition of cell growth incubated for 24 to 48 hrs by CCK8 assay; type: functional, cell-based
[5] = test system: Mus musculus; experiment: Anti-pulmonary fibrosis activity in bleomycin-induced idiopathic pulmonary fibrosis C57BL/6J mouse model assessed as decrease in lung damage by measuring decrease in collagen deposition in lung at 25 to 50 mg/kg, ig administered daily via gavage and measured on day 14 by Hematoxylin-Eosin staining based analysis; type: functional, organism-based; conditions: dose 25-50 mg/kg, time 14.0 day
[6] = target: T1, Protein deacetylase HDAC6 (Mus musculus) (UniProt Q9Z2V5); experiment: In vivo inhibition of HDAC6 in bleomycin-induced idiopathic pulmonary fibrosis C57BL/6J mouse model assessed as increase in acetylated alpha-tubulin level in lung at 25 mg/kg, ig administered via gavage and measured on day 14 by western blot analysis; type: functional, organism-based; conditions: time 14.0 day
T1 sequence (whole entry): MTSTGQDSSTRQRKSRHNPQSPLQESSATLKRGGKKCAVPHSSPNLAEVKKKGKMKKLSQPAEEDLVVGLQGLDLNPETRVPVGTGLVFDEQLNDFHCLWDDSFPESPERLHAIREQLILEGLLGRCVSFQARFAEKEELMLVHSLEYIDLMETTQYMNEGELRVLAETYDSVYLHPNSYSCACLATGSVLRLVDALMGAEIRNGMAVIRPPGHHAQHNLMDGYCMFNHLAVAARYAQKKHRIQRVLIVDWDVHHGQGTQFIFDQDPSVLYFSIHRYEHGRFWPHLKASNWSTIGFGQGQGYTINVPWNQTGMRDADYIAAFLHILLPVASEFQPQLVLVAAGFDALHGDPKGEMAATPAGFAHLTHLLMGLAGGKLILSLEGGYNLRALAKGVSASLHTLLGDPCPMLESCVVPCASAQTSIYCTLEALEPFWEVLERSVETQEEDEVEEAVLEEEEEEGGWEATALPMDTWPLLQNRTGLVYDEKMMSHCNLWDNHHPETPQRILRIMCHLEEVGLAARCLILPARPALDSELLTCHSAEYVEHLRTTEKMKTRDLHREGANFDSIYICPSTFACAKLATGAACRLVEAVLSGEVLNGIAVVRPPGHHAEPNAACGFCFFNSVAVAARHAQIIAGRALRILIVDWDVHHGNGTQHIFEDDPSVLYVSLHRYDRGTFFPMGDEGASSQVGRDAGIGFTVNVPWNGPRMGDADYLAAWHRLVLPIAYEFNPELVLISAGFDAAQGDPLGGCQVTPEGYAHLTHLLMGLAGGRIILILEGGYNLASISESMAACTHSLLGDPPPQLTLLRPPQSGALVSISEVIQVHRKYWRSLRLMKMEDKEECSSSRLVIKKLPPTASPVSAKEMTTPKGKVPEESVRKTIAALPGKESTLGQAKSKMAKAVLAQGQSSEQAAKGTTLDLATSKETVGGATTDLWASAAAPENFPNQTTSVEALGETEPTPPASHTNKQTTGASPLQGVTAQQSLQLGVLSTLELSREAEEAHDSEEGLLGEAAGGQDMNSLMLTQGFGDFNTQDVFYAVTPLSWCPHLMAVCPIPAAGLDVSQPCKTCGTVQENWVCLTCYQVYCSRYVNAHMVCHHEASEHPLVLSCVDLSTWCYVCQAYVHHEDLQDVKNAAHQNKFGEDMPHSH

[7] = target: T1, Protein deacetylase HDAC6 (Mus musculus); experiment: In vivo inhibition of HDAC6 in bleomycin-induced idiopathic pulmonary fibrosis C57BL/6J mouse model assessed as increase in acetylated histone H4 level in lung at 25 mg/kg, ig administered via gavage and measured on day 14 by western blot analysis; type: functional, organism-based; conditions: time 14.0 day
[8] = Toxicity against bleomycin-induced pulmonary fibrosis C57BL/6J mouse model assessed as effect on heart morphological changes at 25 to 50 mg/kg, ig administered daily via gavage and measured on day 14 by Hematoxylin-Eosin staining based analysis; type: organism-based; conditions: in vivo, po, 336 h, dose 25-50 mg/kg, time 14 day
[9] = Toxicity against bleomycin-induced pulmonary fibrosis C57BL/6J mouse model assessed as effect on liver morphological changes at 25 to 50 mg/kg, ig administered daily via gavage and measured on day 14 by Hematoxylin-Eosin staining based analysis; type: organism-based; conditions: in vivo, po, 336 h, dose 25-50 mg/kg, time 14 day
[10] = Toxicity against bleomycin-induced pulmonary fibrosis C57BL/6J mouse model assessed as effect on kidney morphological changes at 25 to 50 mg/kg, ig administered daily via gavage and measured on day 14 by Hematoxylin-Eosin staining based analysis; type: organism-based; conditions: in vivo, po, 336 h, dose 25-50 mg/kg, time 14 day
[11] = Toxicity against silicosis C57BL/6J mouse model assessed as AST index in serum at 50 mg/kg, ig administered daily via gavage and measured on day 28; type: organism-based; conditions: in vivo, po, 672 h, time 28 day

Chain of Histone deacetylase 1 (Homo sapiens) (Q13547 whole entry): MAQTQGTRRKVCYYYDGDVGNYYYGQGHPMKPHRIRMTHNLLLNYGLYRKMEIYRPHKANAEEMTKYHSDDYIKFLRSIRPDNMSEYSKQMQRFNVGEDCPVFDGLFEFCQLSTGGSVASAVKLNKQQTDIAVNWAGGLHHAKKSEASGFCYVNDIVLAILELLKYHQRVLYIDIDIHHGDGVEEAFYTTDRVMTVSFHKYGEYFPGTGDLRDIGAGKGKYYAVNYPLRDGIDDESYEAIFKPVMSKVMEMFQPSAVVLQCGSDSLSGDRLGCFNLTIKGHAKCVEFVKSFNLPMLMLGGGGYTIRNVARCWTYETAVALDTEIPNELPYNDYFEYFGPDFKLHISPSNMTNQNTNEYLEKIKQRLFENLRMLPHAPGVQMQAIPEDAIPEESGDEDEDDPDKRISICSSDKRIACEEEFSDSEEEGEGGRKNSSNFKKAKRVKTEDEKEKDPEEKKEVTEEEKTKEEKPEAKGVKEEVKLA
Chain of Histone deacetylase 2 (Q92769 whole entry): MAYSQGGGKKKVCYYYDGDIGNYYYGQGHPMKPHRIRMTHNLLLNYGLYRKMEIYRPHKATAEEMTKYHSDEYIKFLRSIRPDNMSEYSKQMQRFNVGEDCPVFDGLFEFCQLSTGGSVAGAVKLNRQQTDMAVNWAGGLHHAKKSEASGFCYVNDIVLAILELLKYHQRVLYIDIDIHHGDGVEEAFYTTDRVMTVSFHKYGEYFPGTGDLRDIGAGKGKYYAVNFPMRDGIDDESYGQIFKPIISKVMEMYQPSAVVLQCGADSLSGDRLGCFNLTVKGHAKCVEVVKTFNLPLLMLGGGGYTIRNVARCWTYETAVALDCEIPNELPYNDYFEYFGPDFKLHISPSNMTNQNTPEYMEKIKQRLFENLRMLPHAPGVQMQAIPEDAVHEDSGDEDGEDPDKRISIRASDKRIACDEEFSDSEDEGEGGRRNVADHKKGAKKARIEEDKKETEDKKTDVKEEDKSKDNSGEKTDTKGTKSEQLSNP

Compound: O=C(NO)c1ccc(CN2C(=O)C3=C(CCN(Cc4cccc(Cl)c4)C3)N3CCN=C23)cc1
- Activity [1]: Active; Superior Activity Compared To Positive Drug, Acy-1215
- inhibition [2]: 56.1%
- pIC50 [3]: 6.19
- pIC50 [4]: 4.53
- Activity [5]: Active
- inhibition [6]: inactive
- inhibition [7]: inactive
- Activity [8]: Non-toxic
- Activity [9]: Non-toxic
- Activity [10]: Non-toxic
- Activity [11]: Non-toxic
